Experimental data from patent publication US8791155B2, “Chroman derivatives” (Edison Pharmaceuticals, Inc., priority 2003, dated 2014).

System: IL-1β release from a mouse microglial cell line
Assay: Interleukin-1β microglial cell assay (LPS / IFN gamma)
Format: cell-based
Conditions: LPS (10 μg/ml) and IFN gamma (10 ng/ml), 24 hours, read-out: EC50, inhibition of IL-1 beta induction
Experimental: This assay measures the release of IL-1β from a mouse microglial cell line following an inflammatory challenge with LPS and interferon-gamma. The ability of test articles to inhibit microglial cell activation and IL-1β release is determined by co-incubation of the test article with the inflammatory challenge.
Mouse microglial cells were seeded in poly-D-lysine coated 96-well plates at a density of 10,000 cells/well and allowed to attach for 24 hours. Cells were stimulated by addition of LPS (10 μg/ml) and IFN gamma (10 ng/ml) in the presence or absence of test article. The cells were then incubated for 24 hours at 37° C., after which time the media was removed and used for cytokine determination as described below.
Viability of mouse microglial cells after exposure to the test article was determined using a fluorescent viability dye, Cell Tracker Green. Cell Tracker Green was used at a working concentration of 5 μM in 1×HBSS. Cells were washed once with HBSS (200 μl/well) and 100 μl Cell Tracker Green was added to each well. Cells were then incubated at 37° C. for 30 minutes, after which time the Cell Tracker was removed and the cells were washed once with HBSS (200 μl/well). 100 pl fresh HBSS was added to each well and the plate was read on a Fluoroskan plate reader using an excitation wavelength of 485 nm and an emission wavelength of 538 nm.
1. […]
• The Costar EIA Hi-binding plate was coated with capture antibody at 4 μg/ml. […] Each well was filled to the top, dispensed, and any remaining buffer was removed by inverting the plate and gently blotting against clean paper towels. • Non-specific binding sites were blocked by adding 300 μl of Blocking Buffer to each well, and after sealing incubating for at least 1 hour at room temperature. • After washing the plate was now ready for the samples. […] 100 μl of this Substrate Solution mixture was added to each well and the plate was incubated in the dark for 20 minutes at room temperature. • 50 μl of Stop Solution was added to each well, mixing was ensured by gently tapping. • Each plate was read with the Spectramax once at 450 nm. […]

EC50 [µM]	SMILES
≤ 20	CC1=NN(c2ccccc2)C(=O)C1C(CCC1(C)CCc2cc(O)c(C)c(C)c2O1)C1C(=O)N(c2ccccc2)N=C1C (centres unmarked) [1-(6-Hydroxy-2,7,8-trimethyl-chroman-2-yl)-3-bis-(5-methyl-2-phenyl-2,4-dihydro-pyrazol-3-one-4-yl)-propane]
≤ 20	Cc1c(O)cc2c(c1C)OC(C)(CC/C=C1\SC(=O)NC1=O)CC2 (centres unmarked) [5-[3-(6-Hydroxy-2,7,8-trimethyl-chroman-2-yl)-propylidene]-thiazolidine-2,4-dione]
